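Exposure lasted 48 hours, with cells grown in 96-well plates and compounds tested at five concentrations. GI50: concentration for 50% inhibition of growth. At the TGI there is no net growth.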
Assays:
Experiment in all cases: NCI-60 cell line screen, 48 h
SF-268 CNS = tested on: SF-268 CNS
A498 renal = tested on: A498 renal
KM12 colon = tested on: KM12 colon
K-562 leukemia = tested on: K-562 leukemia
U251 CNS = tested on: U251 CNS
COLO 205 colon = tested on: COLO 205 colon
SN12C renal = tested on: SN12C renal
MDA-MB-435 = tested on: MDA-MB-435
NCI-H226 lung = tested on: NCI-H226 lung
HCC-2998 colon = tested on: HCC-2998 colon
CAKI-1 renal = tested on: CAKI-1 renal
MDA-MB-231 breast = tested on: MDA-MB-231 breast
SK-MEL-5 melanoma = tested on: SK-MEL-5 melanoma
CCRF-CEM leukemia = tested on: CCRF-CEM leukemia
T-47D breast = tested on: T-47D breast
BT-549 breast = tested on: BT-549 breast
HCT-15 colon = tested on: HCT-15 colon
NCI-H460 lung = tested on: NCI-H460 lung
UO-31 renal = tested on: UO-31 renal
SNB-19 CNS = tested on: SNB-19 CNS
NCI-H23 lung = tested on: NCI-H23 lung
SF-295 CNS = tested on: SF-295 CNS
MCF7 breast = tested on: MCF7 breast
SF-539 CNS = tested on: SF-539 CNS
OVCAR-5 ovarian = tested on: OVCAR-5 ovarian
OVCAR-3 ovarian = tested on: OVCAR-3 ovarian
HS 578T breast = tested on: HS 578T breast
SW-620 colon = tested on: SW-620 colon

With `CCNCCNc1cc(-c2ccc(Cl)cc2)c(C#N)c2nc3ccccc3n12` the GI50 (SF-268 CNS) was 1540 nM, the TGI (SF-268 CNS) was 3000 nM and the GI50 (A498 renal) was 2010 nM. It also gave a TGI (A498 renal) of 3520 nM, a GI50 (KM12 colon) of 1730 nM and a TGI (KM12 colon) of 3240 nM. It also gave a GI50 (K-562 leukemia) of 1290 nM, a TGI (K-562 leukemia) of 3060 nM and a GI50 (U251 CNS) of 1700 nM. It also gave a TGI (U251 CNS) of 3270 nM, a GI50 (COLO 205 colon) of 1460 nM and a TGI (COLO 205 colon) of 3270 nM. For the same molecule, the GI50 (SN12C renal) was 1890 nM, the TGI (SN12C renal) was 3850 nM and the GI50 (MDA-MB-435) was 1580 nM. For the same molecule, the TGI (MDA-MB-435) was 2950 nM, the GI50 (NCI-H226 lung) was 1790 nM and the TGI (NCI-H226 lung) was 4310 nM. For the same molecule, the GI50 (HCC-2998 colon) was 1840 nM, the TGI (HCC-2998 colon) was 3400 nM and the GI50 (CAKI-1 renal) was 1630 nM. It also gave a TGI (CAKI-1 renal) of 3280 nM, a GI50 (MDA-MB-231 breast) of 1920 nM and a TGI (MDA-MB-231 breast) of 3580 nM. It also gave a GI50 (SK-MEL-5 melanoma) of 1700 nM, a TGI (SK-MEL-5 melanoma) of 3110 nM and a GI50 (CCRF-CEM leukemia) of 490 nM. It also gave a TGI (CCRF-CEM leukemia) of 2410 nM, a GI50 (T-47D breast) of 1740 nM and a TGI (T-47D breast) of 3860 nM. For the same molecule, the GI50 (BT-549 breast) was 1750 nM, the TGI (BT-549 breast) was 3340 nM and the GI50 (HCT-15 colon) was 1250 nM. For the same molecule, the TGI (HCT-15 colon) was 2640 nM, the GI50 (NCI-H460 lung) was 1790 nM and the TGI (NCI-H460 lung) was 3370 nM. For the same molecule, the GI50 (UO-31 renal) was 1490 nM, the TGI (UO-31 renal) was 2940 nM and the GI50 (SNB-19 CNS) was 1840 nM. It also gave a TGI (SNB-19 CNS) of 3640 nM, a GI50 (NCI-H23 lung) of 1850 nM and a TGI (NCI-H23 lung) of 3910 nM. The GI50 (SF-295 CNS) was 1720 nM, the TGI (SF-295 CNS) was 3310 nM and the GI50 (MCF7 breast) was 1370 nM. For the same molecule, the TGI (MCF7 breast) was 3050 nM, the GI50 (SF-539 CNS) was 1720 nM and the TGI (SF-539 CNS) was 3220 nM. The GI50 (OVCAR-5 ovarian) was 1910 nM, the TGI (OVCAR-5 ovarian) was 3670 nM and the GI50 (OVCAR-3 ovarian) was 1450 nM. The TGI (OVCAR-3 ovarian) was 2850 nM, the GI50 (HS 578T breast) was 2200 nM and the TGI (HS 578T breast) was 4680 nM. The GI50 (SW-620 colon) was 1520 nM and the TGI (SW-620 colon) was 3140 nM.

From PubChem BioAssay (NCI)
